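Results reflect a 48-hour exposure of cells in 96-well plates to compound at five concentrations. At the GI50, growth is halved. TGI is the concentration that stops growth completely.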
How the values were obtained:
Assay in all cases: NCI tumour cell line growth inhibition, 48 h
HT29 colon = test system: HT29 colon
OVCAR-5 ovarian = test system: OVCAR-5 ovarian
BT-549 breast = test system: BT-549 breast
PC-3 prostate = test system: PC-3 prostate
ACHN renal = test system: ACHN renal
SF-268 CNS = test system: SF-268 CNS
NCI-H522 lung = test system: NCI-H522 lung
UO-31 renal = test system: UO-31 renal
HL-60(TB) leukemia = test system: HL-60(TB) leukemia
EKVX NSCLC = test system: EKVX NSCLC

COc1c(C)cnc(Cn2cnc3c(Cl)nc(N)nc32)c1C
GI50 (HT29 colon): 0.0654 µM
TGI (HT29 colon): > 100 µM
GI50 (OVCAR-5 ovarian): 1.13 µM
TGI (OVCAR-5 ovarian): > 100 µM
GI50 (BT-549 breast): 1.43 µM
TGI (BT-549 breast): > 100 µM
GI50 (PC-3 prostate): 0.359 µM
TGI (PC-3 prostate): > 100 µM
GI50 (ACHN renal): 0.289 µM
TGI (ACHN renal): > 100 µM
GI50 (SF-268 CNS): 0.708 µM
TGI (SF-268 CNS): > 100 µM
GI50 (NCI-H522 lung): 0.261 µM
TGI (NCI-H522 lung): 12.9 µM
GI50 (UO-31 renal): 0.141 µM
TGI (UO-31 renal): > 47.4 µM
GI50 (HL-60(TB) leukemia): 0.245 µM

Cc1ccc(S(=O)(=O)c2ccccn2)cc1
TGI (HT29 colon): > 100 µM
TGI (EKVX NSCLC): > 100 µM
TGI (OVCAR-5 ovarian): 97.2 µM
TGI (ACHN renal): > 100 µM
TGI (SF-268 CNS): > 100 µM
TGI (NCI-H522 lung): > 100 µM
TGI (UO-31 renal): > 100 µM
TGI (HL-60(TB) leukemia): > 100 µM

CC1CCCC2(O1)OC1CC(=O)OC1C1=C2C(=O)c2ccccc2C1=O (centres undefined)
TGI (HT29 colon): 11 µM
TGI (EKVX NSCLC): 14.2 µM
TGI (OVCAR-5 ovarian): 35 µM
TGI (ACHN renal): 15 µM
TGI (SF-268 CNS): 14.9 µM
TGI (NCI-H522 lung): 3.65 µM
TGI (UO-31 renal): 5.41 µM
TGI (HL-60(TB) leukemia): 3.48 µM

C[N+](C)(C)CC(=O)N/N=C(\C(=O)Nc1ccc(Cl)cc1)C1C(=O)N(c2ccccc2)N=C1N (centres undefined)
TGI (HT29 colon): > 100 µM
TGI (EKVX NSCLC): > 100 µM
TGI (OVCAR-5 ovarian): > 100 µM
TGI (ACHN renal): > 100 µM
TGI (SF-268 CNS): > 100 µM
TGI (NCI-H522 lung): > 100 µM
TGI (UO-31 renal): > 100 µM
TGI (HL-60(TB) leukemia): > 100 µM

Cc1nc2c(=O)n(C)c(=O)nc-2n(-c2ccc(Cl)cc2)c1C
TGI (HT29 colon): > 100 µM
TGI (EKVX NSCLC): > 100 µM
TGI (OVCAR-5 ovarian): > 100 µM
TGI (ACHN renal): > 100 µM
TGI (SF-268 CNS): > 100 µM
TGI (NCI-H522 lung): > 100 µM
TGI (UO-31 renal): > 100 µM
TGI (HL-60(TB) leukemia): > 100 µM

Oc1ccc(-c2nc(-c3ccc4oc5ccc(-c6[nH]c(-c7ccc(O)cc7)nc6-c6ccccc6)cc5c4c3)c(-c3ccccc3)[nH]2)cc1
GI50 (HT29 colon): 3.8 µM
TGI (HT29 colon): 11.3 µM
GI50 (OVCAR-5 ovarian): 12.1 µM
TGI (OVCAR-5 ovarian): 25.4 µM
GI50 (BT-549 breast): 18.8 µM
TGI (BT-549 breast): 58.2 µM
GI50 (PC-3 prostate): 2.93 µM
TGI (PC-3 prostate): 13.5 µM
GI50 (ACHN renal): 5.2 µM
TGI (ACHN renal): 20.3 µM
GI50 (SF-268 CNS): 5.57 µM
TGI (SF-268 CNS): 65.3 µM
GI50 (NCI-H522 lung): 2.95 µM
TGI (NCI-H522 lung): 8.02 µM
GI50 (UO-31 renal): 6.96 µM
TGI (UO-31 renal): 22.8 µM
GI50 (HL-60(TB) leukemia): 2.79 µM
TGI (HL-60(TB) leukemia): 8.09 µM

O=C1/C(=C/c2ccc([N+](=O)[O-])s2)Oc2ccc(Cl)cc21
GI50 (HT29 colon): 2.21 µM
TGI (HT29 colon): 5.49 µM
GI50 (OVCAR-5 ovarian): 1.53 µM
TGI (OVCAR-5 ovarian): 3.01 µM
GI50 (BT-549 breast): 0.248 µM
TGI (BT-549 breast): 0.682 µM
GI50 (PC-3 prostate): 0.216 µM
TGI (PC-3 prostate): 0.593 µM
GI50 (ACHN renal): 0.234 µM
TGI (ACHN renal): 0.595 µM
GI50 (SF-268 CNS): 0.405 µM
TGI (SF-268 CNS): 1.53 µM
GI50 (NCI-H522 lung): 0.198 µM
TGI (NCI-H522 lung): 0.435 µM
GI50 (UO-31 renal): 0.152 µM
TGI (UO-31 renal): 0.295 µM
GI50 (HL-60(TB) leukemia): 0.423 µM
TGI (HL-60(TB) leukemia): 2.15 µM

Cc1ccc(CCNC(=S)SCC(NC(=O)CCC(N)C(=O)O)C(=O)NCC(=O)O)cc1 (centres undefined)
TGI (HT29 colon): 7.01 µM
TGI (EKVX NSCLC): 18.6 µM
TGI (OVCAR-5 ovarian): 6.11 µM
TGI (ACHN renal): 4.17 µM
TGI (SF-268 CNS): 8.29 µM
TGI (NCI-H522 lung): 1.45 µM
TGI (UO-31 renal): 2.33 µM
TGI (HL-60(TB) leukemia): 2.6 µM

CCCCCCn1c(=N)n(CC(O)COc2cccc(C)c2)c2ccccc21 (centres undefined)
GI50 (HT29 colon): 1.73 µM
TGI (HT29 colon): 3.59 µM
GI50 (OVCAR-5 ovarian): 4.01 µM
TGI (OVCAR-5 ovarian): 15.1 µM
GI50 (BT-549 breast): 1.8 µM
TGI (BT-549 breast): 3.51 µM
GI50 (PC-3 prostate): 2.16 µM
TGI (PC-3 prostate): 5.23 µM
GI50 (ACHN renal): 2.02 µM
TGI (ACHN renal): 4.25 µM
GI50 (SF-268 CNS): 3.9 µM
TGI (SF-268 CNS): 13.9 µM
GI50 (NCI-H522 lung): 1.78 µM
TGI (NCI-H522 lung): 3.82 µM
GI50 (UO-31 renal): 3.88 µM
TGI (UO-31 renal): 15.4 µM
GI50 (HL-60(TB) leukemia): 1.88 µM
TGI (HL-60(TB) leukemia): 3.79 µM

COc1ccc(/C=C(\NC(=O)c2ccccc2)c2nc3ccccc3[nH]2)cc1
TGI (HT29 colon): > 100 µM
TGI (EKVX NSCLC): > 100 µM
TGI (OVCAR-5 ovarian): 84.5 µM
TGI (ACHN renal): > 100 µM
TGI (SF-268 CNS): > 100 µM
TGI (NCI-H522 lung): > 100 µM
TGI (UO-31 renal): 74.5 µM

COc1cc(C2C(C(=O)Nc3ccc(Cl)c(Cl)c3)=C(C)NC(C)=C2C(=O)Nc2ccc(Cl)c(Cl)c2)ccc1O
TGI (HT29 colon): 31.7 µM
TGI (EKVX NSCLC): 28.1 µM
TGI (OVCAR-5 ovarian): 38.8 µM
TGI (ACHN renal): 32.9 µM
TGI (SF-268 CNS): 30.8 µM
TGI (NCI-H522 lung): 14.7 µM
TGI (UO-31 renal): 25.6 µM
TGI (HL-60(TB) leukemia): 23.3 µM

O=C1c2ccccc2CC1C1(O)C(=O)Nc2c(Cl)cc(Cl)cc21 (centres undefined)
TGI (HT29 colon): > 100 µM
TGI (EKVX NSCLC): > 100 µM
TGI (OVCAR-5 ovarian): > 100 µM
TGI (ACHN renal): > 100 µM
TGI (SF-268 CNS): > 100 µM
TGI (NCI-H522 lung): 47.3 µM
TGI (UO-31 renal): > 100 µM
TGI (HL-60(TB) leukemia): 96.4 µM

COC(=O)c1cc(CNCCc2c[nH]c3ccccc23)on1
TGI (HT29 colon): > 100 µM
TGI (EKVX NSCLC): > 100 µM
TGI (OVCAR-5 ovarian): > 100 µM
TGI (PC-3 prostate): > 100 µM
TGI (ACHN renal): > 100 µM
TGI (SF-268 CNS): > 100 µM
TGI (NCI-H522 lung): 73.5 µM
TGI (UO-31 renal): > 100 µM
TGI (HL-60(TB) leukemia): > 100 µM

Cn1cc(C2=C(c3cn(CCCSC(=N)N)c4ccccc34)C(=O)NC2=O)c2ccccc21
GI50 (HT29 colon): 2.73 µM
TGI (HT29 colon): 11.1 µM
GI50 (OVCAR-5 ovarian): 4.51 µM
TGI (OVCAR-5 ovarian): 18.6 µM
GI50 (BT-549 breast): 4.83 µM
TGI (BT-549 breast): 10.8 µM
GI50 (PC-3 prostate): 3.38 µM
TGI (PC-3 prostate): 11.1 µM
GI50 (ACHN renal): 4.42 µM
TGI (ACHN renal): 9.31 µM
GI50 (SF-268 CNS): 1.76 µM
TGI (SF-268 CNS): 7.52 µM
GI50 (NCI-H522 lung): 1.51 µM
TGI (NCI-H522 lung): 5.27 µM
GI50 (UO-31 renal): 5.59 µM
TGI (UO-31 renal): 16.2 µM
GI50 (HL-60(TB) leukemia): 0.789 µM
TGI (HL-60(TB) leukemia): 2.14 µM

CCOc1ccccc1Nc1nc(C)c(C(=O)CC(=O)C(=O)Nc2ccccc2)s1
TGI (HT29 colon): > 100 µM
TGI (EKVX NSCLC): > 100 µM
TGI (OVCAR-5 ovarian): > 100 µM
TGI (ACHN renal): > 100 µM
TGI (SF-268 CNS): > 100 µM
TGI (NCI-H522 lung): 84.8 µM
TGI (UO-31 renal): > 100 µM
TGI (HL-60(TB) leukemia): 58.1 µM

CCN(CC)CCCC(C)NC(=S)N/N=C(\C)c1ccccn1 (centres undefined)
GI50 (HT29 colon): 5.59 µM
TGI (HT29 colon): > 100 µM
GI50 (EKVX NSCLC): 6.71 µM
TGI (EKVX NSCLC): > 100 µM
GI50 (OVCAR-5 ovarian): 4.89 µM
TGI (OVCAR-5 ovarian): > 100 µM
GI50 (PC-3 prostate): 5.02 µM
TGI (PC-3 prostate): > 100 µM
GI50 (ACHN renal): 2.99 µM
TGI (ACHN renal): > 100 µM
GI50 (SF-268 CNS): 3.19 µM
TGI (SF-268 CNS): > 100 µM
GI50 (NCI-H522 lung): 3.17 µM
TGI (NCI-H522 lung): 9.41 µM
GI50 (UO-31 renal): 2.51 µM
TGI (UO-31 renal): > 100 µM
GI50 (HL-60(TB) leukemia): 1.39 µM
TGI (HL-60(TB) leukemia): 6.02 µM

COc1ccc2nccc(C3OC(=O)N4CCC(=O)CC34)c2c1 (centres undefined)
TGI (HT29 colon): > 100 µM
TGI (EKVX NSCLC): > 100 µM
TGI (OVCAR-5 ovarian): > 100 µM
TGI (ACHN renal): > 100 µM
TGI (SF-268 CNS): > 100 µM
TGI (NCI-H522 lung): 28.7 µM
TGI (UO-31 renal): > 100 µM
TGI (HL-60(TB) leukemia): > 100 µM

COc1ccc(C2CC(c3cccc(Nc4ccnc5cc(Cl)ccc45)c3)=NN2c2ccc(Cl)cc2)cc1 (centres undefined)
GI50 (OVCAR-5 ovarian): 15.6 µM
TGI (OVCAR-5 ovarian): 87 µM
GI50 (BT-549 breast): 2.67 µM
TGI (BT-549 breast): 26.6 µM
GI50 (PC-3 prostate): 1.18 µM
TGI (PC-3 prostate): 64.5 µM
GI50 (ACHN renal): 4.63 µM
TGI (ACHN renal): 90.6 µM
GI50 (SF-268 CNS): 15.5 µM
TGI (SF-268 CNS): > 100 µM
GI50 (NCI-H522 lung): 4.09 µM
TGI (NCI-H522 lung): 23.2 µM
GI50 (UO-31 renal): 1.87 µM
TGI (UO-31 renal): 31.3 µM
GI50 (HL-60(TB) leukemia): 4.78 µM
TGI (HL-60(TB) leukemia): 26.9 µM

Cc1cn2cc(-c3ccncc3)nc2s1
TGI (HT29 colon): > 100 µM
TGI (EKVX NSCLC): > 100 µM
TGI (OVCAR-5 ovarian): > 100 µM
TGI (ACHN renal): > 100 µM
TGI (SF-268 CNS): > 100 µM
TGI (NCI-H522 lung): > 100 µM
TGI (UO-31 renal): > 100 µM
TGI (HL-60(TB) leukemia): > 41.6 µM

From PubChem BioAssay (NCI)
